# Columns and labels:
# Assay type in all cases: in vivo
# [1] = system: barnyardgrass (Echinochloa crus-galli); assay: Test A pre-/postemergence plant response
# Excerpt: (§1) Seeds of barnyardgrass (Echinochloa crus-galli), large crabgrass (Digitaria sanguinalis), giant foxtail (Setaria faberii), morningglory (Ipomoea spp.), pigweed (Amaranthus retroflexus), velvetleaf (Abutilon theophrasti), wheat (Triticum aestivum) and corn (Zea mays) were planted into a blend of loam soil and sand and treated preemergence with a directed soil spray using test chemicals formulated in a non-phytotoxic solvent mixture which included a surfactant. At the same time these species were also treated with postemergence applications of test compounds formulated in the same manner.
# (§2) Plants ranged in height from two to ten cm and were in the one- to two-leaf stage for the postemergence treatment. Treated plants and untreated controls were maintained in a greenhouse for approximately ten days, after which time all treated plants were compared to untreated controls and visually evaluated for injury. Plant response ratings, summarized in Table A, are based on a 0 to 100 scale where 0 is no effect and 100 is complete control. A dash (-) response means no test result.
# corn (Zea mays) = assay: Test A pre-/postemergence plant response
# Excerpt: as §1, §2
# [2] = system: giant foxtail (Setaria faberii); assay: Test A pre-/postemergence plant response
# Excerpt: as §1, §2
# [3] = system: large crabgrass (Digitaria sanguinalis); assay: Test A pre-/postemergence plant response
# Excerpt: as §1, §2
# [4] = system: morningglory (Ipomoea spp.); assay: Test A pre-/postemergence plant response
# Excerpt: as §1, §2
# [5] = system: pigweed (Amaranthus retroflexus); assay: Test A pre-/postemergence plant response
# Excerpt: as §1, §2
# [6] = system: velvetleaf (Abutilon theophrasti); assay: Test A pre-/postemergence plant response
# Excerpt: as §1, §2
# [7] = system: wheat (Triticum aestivum); assay: Test A pre-/postemergence plant response
# Excerpt: as §1, §2
# [8] = system: barnyardgrass (Echinochloa crus-galli); assay: Test B flooded paddy test; conditions: for Plant response rating, Flood, Barnyardgrass: 250 g ai/ha, flooded paddy test, visual rating on 0 to 100 scale (0 no effect, 100 complete control) after 13 to 15 days; for Plant response rating, Barnyardgrass: Flood (flooded paddy test), 13 to 15 days
# Method in brief: (§3)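 Greenhouse-held for 13 to 15 days, treated pots were compared visually with controls and scored 0–100 (0, no effect). Treatment had been made into paddy water kept at 3 cm above the soil, with plants at the 2-leaf stage.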
# [9] = system: ducksalad (Heteranthera limosa); assay: Test B flooded paddy test; conditions: for Plant response rating, Flood, Ducksalad: 250 g ai/ha, flooded paddy test, visual rating on 0 to 100 scale (0 no effect, 100 complete control) after 13 to 15 days; for Plant response rating, Ducksalad: Flood (flooded paddy test), 13 to 15 days
# Method in brief: as §3
# rice (Oryza sativa) = assay: Test B flooded paddy test; conditions: for Plant response rating, Flood, Rice: 250 g ai/ha, flooded paddy test, visual rating on 0 to 100 scale (0 no effect, 100 complete control) after 13 to 15 days; for Plant response rating, Rice: Flood (flooded paddy test), 13 to 15 days
# Method in brief: as §3
# [10] = system: umbrella sedge (Cyperus difformis); assay: Test B flooded paddy test; conditions: for Plant response rating, Flood, Sedge, Umbrella: 250 g ai/ha, flooded paddy test, visual rating on 0 to 100 scale (0 no effect, 100 complete control) after 13 to 15 days; for Plant response rating, Sedge, Umbrella: Flood (flooded paddy test), 13 to 15 days
# Method in brief: as §3
# [11] = Postemergence, 125 g ai/ha, visual injury, 0 to 100 scale (0 no effect, 100 complete control), approx. ten days
# [12] = Postemergence, 500 g ai/ha, 0 to 100 scale, 0 = no effect, 100 = complete control, approx. ten days
# [13] = Preemergence, 125 g ai/ha, 0 to 100 scale, 0 = no effect, 100 = complete control
# [14] = Preemergence, 500 g ai/ha, visual injury, 0 to 100 scale (0 no effect, 100 complete control), approx. ten days
# [15] = 31 g ai/ha, scale of 0 to 100 where 0 is no effect and 100 is complete control
# [16] = 62 g ai/ha, scale of 0 to 100 where 0 is no effect and 100 is complete control
# [17] = 125 g ai/ha, scale 0 to 100, 0 is no effect, 100 is complete control
# [18] = Flood, 31 g ai/ha, scale 0 to 100 (0 no effect, 100 complete control)
structure (smiles),measurement,setting,value
O=C1CCCC(O)=C1C(=O)c1cnc(-c2ccccc2)n(-c2ccc(F)cc2F)c1=O [Compound 57],Barnyardgrass plant response rating,[1]; [11],70
same,"Plant response rating, Barnyardgrass",[1]; [12],90
same,"Plant response rating, Barnyardgrass",[1]; [13],40
same,"Plant response rating, Barnyardgrass",[1]; [14],90
same,Corn plant response rating,corn (Zea mays); [11],0
same,"Plant response rating, Corn",corn (Zea mays); [12],40
same,"Plant response rating, Corn",corn (Zea mays); [13],0
same,"Plant response rating, Corn",corn (Zea mays); [14],0
same,"Foxtail, Giant plant response rating",[2]; [11],80
same,"Plant response rating, Foxtail, Giant",[2]; [12],90
same,"Plant response rating, Foxtail, Giant",[2]; [13],70
same,"Plant response rating, Foxtail, Giant",[2]; [14],90
same,"Crabgrass, Large plant response rating",[3]; [11],80
same,"Plant response rating, Crabgrass, Large",[3]; [12],90
same,"Plant response rating, Crabgrass, Large",[3]; [13],90
same,"Plant response rating, Crabgrass, Large",[3]; [14],100
same,Morningglory plant response rating,[4]; [11],50
same,"Plant response rating, Morningglory",[4]; [12],60
same,"Plant response rating, Morningglory",[4]; [13],20
same,"Plant response rating, Morningglory",[4]; [14],80
same,Pigweed plant response rating,[5]; [11],90
same,"Plant response rating, Pigweed",[5]; [12],100
same,"Plant response rating, Pigweed",[5]; [13],90
same,"Plant response rating, Pigweed",[5]; [14],100
same,Velvetleaf plant response rating,[6]; [11],100
same,"Plant response rating, Velvetleaf",[6]; [12],100
same,"Plant response rating, Velvetleaf",[6]; [13],80
same,"Plant response rating, Velvetleaf",[6]; [14],100
same,Wheat plant response rating,[7]; [11],0
same,"Plant response rating, Wheat",[7]; [12],10
same,"Plant response rating, Wheat",[7]; [13],0
same,"Plant response rating, Wheat",[7]; [14],0
same,"Plant response rating, Flood, Barnyardgrass",[8],25
same,"Plant response rating, Barnyardgrass",[8]; [15],0
same,"Plant response rating, Barnyardgrass",[8]; [16],0
same,"Plant response rating, Barnyardgrass",[8]; [17],20
same,"Plant response rating, Flood, Ducksalad",[9],60
same,"Plant response rating, Ducksalad",[9]; [15],0
same,"Plant response rating, Ducksalad",[9]; [16],0
same,"Plant response rating, Ducksalad",[9]; [17],40
same,"Plant response rating, Flood, Rice",rice (Oryza sativa),25
same,"Plant response rating, Rice",rice (Oryza sativa); [15],0
same,"Plant response rating, Rice",rice (Oryza sativa); [16],0
same,"Plant response rating, Rice",rice (Oryza sativa); [17],15
same,"Plant response rating, Flood, Sedge, Umbrella",[10],75
same,"Plant response rating, Sedge, Umbrella",[10]; [15],0
same,"Plant response rating, Sedge, Umbrella",[10]; [16],0
same,"Plant response rating, Sedge, Umbrella",[10]; [17],50
O=C1CCCC(O)=C1C(=O)c1cnc(-c2ccc(Cl)s2)n(-c2ccccc2)c1=O [Compound 65],Barnyardgrass plant response rating,[1]; [11],10
same,"Plant response rating, Barnyardgrass",[1]; [12],50
same,"Plant response rating, Barnyardgrass",[1]; [13],0
same,"Plant response rating, Barnyardgrass",[1]; [14],10
same,Corn plant response rating,corn (Zea mays); [11],0
same,"Plant response rating, Corn",corn (Zea mays); [12],0
same,"Plant response rating, Corn",corn (Zea mays); [13],0
same,"Plant response rating, Corn",corn (Zea mays); [14],0
same,"Foxtail, Giant plant response rating",[2]; [11],10
same,"Plant response rating, Foxtail, Giant",[2]; [12],40
same,"Plant response rating, Foxtail, Giant",[2]; [13],0
same,"Plant response rating, Foxtail, Giant",[2]; [14],40
same,"Crabgrass, Large plant response rating",[3]; [11],30
same,"Plant response rating, Crabgrass, Large",[3]; [12],60
same,"Plant response rating, Crabgrass, Large",[3]; [13],10
same,"Plant response rating, Crabgrass, Large",[3]; [14],80
same,Morningglory plant response rating,[4]; [11],50
same,"Plant response rating, Morningglory",[4]; [12],60
same,"Plant response rating, Morningglory",[4]; [13],0
same,"Plant response rating, Morningglory",[4]; [14],0
same,Pigweed plant response rating,[5]; [11],20
same,"Plant response rating, Pigweed",[5]; [12],60
same,"Plant response rating, Pigweed",[5]; [13],0
same,"Plant response rating, Pigweed",[5]; [14],0
same,Velvetleaf plant response rating,[6]; [11],90
same,"Plant response rating, Velvetleaf",[6]; [12],100
same,"Plant response rating, Velvetleaf",[6]; [13],30
same,"Plant response rating, Velvetleaf",[6]; [14],50
same,Wheat plant response rating,[7]; [11],0
same,"Plant response rating, Wheat",[7]; [12],0
same,"Plant response rating, Wheat",[7]; [13],0
same,"Plant response rating, Wheat",[7]; [14],0
same,"Plant response rating, Flood, Barnyardgrass",[8],0
same,"Plant response rating, Barnyardgrass",[8]; [16],0
same,"Plant response rating, Barnyardgrass",[8]; [17],0
same,Barnyardgrass plant response rating,[8]; [18],0
same,"Plant response rating, Flood, Ducksalad",[9],0
same,"Plant response rating, Ducksalad",[9]; [16],0
same,"Plant response rating, Ducksalad",[9]; [17],0
same,Ducksalad plant response rating,[9]; [18],0
same,"Plant response rating, Flood, Rice",rice (Oryza sativa),0
same,"Plant response rating, Rice",rice (Oryza sativa); [16],0
same,"Plant response rating, Rice",rice (Oryza sativa); [17],0
same,Rice plant response rating,rice (Oryza sativa); [18],0
same,"Plant response rating, Flood, Sedge, Umbrella",[10],0
same,"Plant response rating, Sedge, Umbrella",[10]; [16],0
same,"Plant response rating, Sedge, Umbrella",[10]; [17],0
same,"Sedge, Umbrella plant response rating",[10]; [18],0

# Source: patent US8952024B2, “Herbicidal pyrimidone derivatives” (E I du Pont de Nemours and Company, priority 2009, dated 2015)
